We go through 91 sequences from publication PMC10065799, “High-throughput profiling of sequence recognition by tyrosine kinases and SH2 domains using bacterial peptide display” (eLife, 2023).

One assay has as its target c-Src kinase domain (Homo sapiens, UniProt P12931). The experiment in a line: pTyr-Var library bacterial peptide display kinase screen (enrichment scores). Format: biochemical. The settings on record: sheet "Src"; effect of the variant peptide relative to its reference peptide in the pTyr-Var library screen.
Consider DPLLTYLFPPK [LMNA_Y481_R482L], for which the Screen is on record as 2.327.

Regarding EFQLPYFNTVP [BMPR1A_Y457_M460T_YF], the Screen is -0.7468.

The sequence EGDGVYTLNNK [HP_Y125_E130K] displayed a Screen of 0.08373.

EWCSPYGLTPR [GRIN3B_Y601_R598C] yielded a Screen of 1.62.

FVPSFYHAFSG [ACTN4_Y265_S262P_YF] registered a Screen of -1.103.

Sequence IDPFTYTPFGS [CYP3A4_Y432_I431T_YF] displayed a Screen of -1.161.

IGERTYGQVFK [CDK13_Y716_G714R_YF] displayed a Screen of -0.5578.

Regarding IRSGIYFKPES [L2HGDH_Y102_H98R_YF], the Screen is -1.512.

KEKLCYVAPDF [ACTA1_Y220_L223P] showed a Screen of -1.653.

KHCEDYVFSFN [DSC1_Y846_C848F_YF] returned a Screen of 1.064.

On to LDFNEYFRFLN [HPRT1_Y198_D201Y_YF], for which the Screen is on record as 2.939.

As for LFSNAYLSDLA [ALDH1A1_Y119_N121S_YF], the Screen is 1.319.

Sequence NVADHYRVFKP [ATP6V0D2_Y271_G272R_YF] showed a Screen of -3.184.

PQDVTYARLHS [LILRB4_Y412_Q414R]: the Screen is given as -0.3004.

On to QMVGKYASSFM [AVPR2_Y124_M123K_YF], for which the Screen is reported as -1.364.

Turning to QPEDIYHQTWA [GBA_Y244_G241E], the Screen is 0.7767.

Regarding QQMGTYGVRAA [ICAM2_Y260_R256Q], the Screen is given as 0.6458.

Take RPAFTYATLIR [FOXP3_Y342_P339A]: the Screen is recorded as 1.034.

In turn, RPPFTYATLIH [FOXP3_Y342_R347H] displayed a Screen of 0.0554.

Regarding SDPIVYTLENI [EMR1_Y534_I533V], the Screen is -0.3296.

For the sequence VDGSVYKLPPS [GCK_Y413_H416P], the Screen is on record as -1.181.

The assay is the same for the next values; noted with them: sheet "Src"; variant peptide versus its reference peptide in the pTyr-Var library screen.
Sequence ESAAIYNPVIF [RHO_Y301_K296E_YF] yielded a Screen of 0.5635.

In turn, FSCLPYRRLAF [SLC52A2_Y305_G306R_YF] yielded a Screen of -1.493.

Consider NQELIYEGQRL [TBK1_Y354_R357Q], for which the Screen is -0.1995.

In turn, NTGVFYDLFGG [PTPN11_Y63_D61V_YF] displayed a Screen of 0.1029.

On to PLDGGYFTLQI [TP53_Y327_E326G], for which the Screen is on record as -1.493.

Take PPSELYFVKVD [TERT_Y707_P704S]: the Screen was -0.06532.

Consider RRIHSYRGHLC [VHL_Y112_W117C], for which the Screen is -2.769.

RRIHSYRGQLW [VHL_Y112_H115Q]: the Screen is -2.232.

As for SVMAEYGLFRA [VSX2_Y219_G223R_YF], the Screen is recorded as -0.02483.

The target of another assay is T1, c-Abl kinase domain (Mus musculus, UniProt P00520).
T1 sequence (P00520 242-493 limits assumed): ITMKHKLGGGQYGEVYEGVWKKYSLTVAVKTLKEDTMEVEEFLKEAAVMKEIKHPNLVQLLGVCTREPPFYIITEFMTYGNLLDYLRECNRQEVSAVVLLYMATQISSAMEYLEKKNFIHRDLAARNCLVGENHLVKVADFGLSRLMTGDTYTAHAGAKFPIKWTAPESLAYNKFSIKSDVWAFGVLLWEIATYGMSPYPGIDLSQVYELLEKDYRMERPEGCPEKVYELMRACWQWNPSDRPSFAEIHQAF
The assay is described as above. To be noted: fig5-data2, sheet "Abl"; Screen for the variant/reference peptide pair, pTyr-Var library. The assay is classed as biochemical.
In the case of ASPKSYPSQKH [CAP2_Y316_T311A], the Screen came out at 0.389.

The sequence DKATEYIQFVR [MAX_Y70_M74V_YF] showed a Screen of 0.6462.

Turning to DPEGAYTTRGG [EPHA3_Y779_A777G], the Screen was -2.084.

DVRQEYSGMIL [PLXND1_Y616_P617S] displayed a Screen of -0.7051.

Turning to EFITRYIDSLK [PSMA7_Y110_A112D_YF], the Screen is recorded as -0.5363.

EFTAGYNVKFD [GPX4_Y123_A120T] came in with a Screen of -0.6842.

EIIPFYGMSSF [FNDC3B_Y175_T179S_YF] showed a Screen of -1.124.

Sequence ENKGVYVPMSG [IVD_Y277_L279P] showed a Screen of -1.069.

Regarding EVDETYVPKKF [ALB_Y521_E525K], the Screen worked out at 0.9455.

FRRITYFNWRH [PDE6B_Y556_H557Y_YF] returned a Screen of 1.003.

Turning to GFKVRYATGSI [FGFR1_Y210_W213G_YF], the Screen amounted to 1.302.

Sequence IDAVCYFRMEN [NPHS2_Y194_I192V_YF] gave a Screen of -2.251.

For IGGHAYGDQFR [IDH1_Y135_R132G_YF], the Screen is recorded as -1.313.

In turn, KGEDFYCVTRH [FHL1_Y149_C153R] came in with a Screen of -2.042.

In turn, KRIETYFSKNF [PLP1_Y50_L46R_YF] showed a Screen of -0.1285.

In turn, LEIETYPRLLD [KRT12_Y429_R430P] had a Screen of 0.133.

LTERSYSFVTT [ACTA1_Y200_G199S] displayed a Screen of 0.4799.

The sequence MLEVPYVDHNS [F10_Y384_R387H] had a Screen of 2.373.

Sequence PQDVTYARLHS [LILRB4_Y412_Q414R] came in with a Screen of -1.045.

For the sequence PRLMLYNPTTF [EGFR_Y270_P266R_YF], the Screen was -1.245.

The sequence RALCHYFKLNI [ETV6_Y401_R399C_YF] came in with a Screen of 0.924.

REGAKYVSHCA [ASS1_Y113_G117C] displayed a Screen of -1.469.

In turn, RGRSTYFWPSP [GAGE12J_Y9_R13S_YF] gave a Screen of 0.4744.

Turning to RIDPDYMGRVR [IGSF9_Y81_V82M], the Screen is listed as 0.7055.

RLNCIYFKDQT [RS1_Y165_W163C_YF]: the Screen was 0.3384.

Regarding RPAFTYATLIR [FOXP3_Y342_P339A], the Screen amounted to 1.493.

RSHRSYSCQVM [IGLL1_Y192_R189H] showed a Screen of -0.4092.

SLNEEYAKNKT [MSH2_Y563_T564A] displayed a Screen of 0.808.

The same assay, now with this note: sheet "Abl"; effect of variant peptide relative to its reference peptide in pTyr-Var library screen (enrichment).
In turn, CVAARYMDMKG [WFIKKN2_Y93_V96M] yielded a Screen of -2.912.

Sequence DKPENYRRLDI [VHL_Y175_V170D] returned a Screen of -0.4882.

The sequence DTQNSYRCATS [TSC1_Y304_G305R] came in with a Screen of -1.491.

With DVQNEYDSNHC [ZFYVE16_Y36_A35E], the Screen turned out to be 2.88.

As for EIASHYRHLLR [ZBTB46_Y14_T11A], the Screen is listed as -2.772.

Take HLQDEYDFKCK [STAT1_Y170_D165H]: the Screen is listed as -0.7143.

With HSREDYFECFQ [ZIM2_Y411_Q408R], the Screen was -4.72.

Take IVRSLYEDPED [VHL_Y185_L188P]: the Screen is reported as -2.672.

KDHPDYKFQRR [SOX10_Y171_P175R_YF] had a Screen of -0.3891.

With KPGVNYFFQVS [TTN_Y28165_R28168Q_YF], the Screen is reported as -1.428.

Take LEPGIYIPEDD [XPNPEP3_Y455_I450L]: the Screen is -2.688.

For the sequence LLKMMYLMLDN [STAT1_Y203_K201M], the Screen is given as 0.1881.

NGEDLYAGSTD [XRCC1_Y515_P514L]: the Screen stood at 3.605.

Consider RRGMPYGGHGD [TGM1_Y312_R315H], for which the Screen was determined as 0.4767.

Regarding SVTFTYSPALN [TP53_Y126_C124Y_YF], the Screen is recorded as 1.264.

In turn, TENAGYFFQVS [TTN_Y31721_R31724Q_YF] yielded a Screen of -1.788.

In turn, TGFRPYVCPFD [YY1_Y383_D380Y_YF] came in with a Screen of -3.682.

In another assay the test system is Fer kinase domain. Described as above. The settings on record: sheet "Fer"; value of the variant peptide against its reference peptide in the pTyr-Var library screen with Fer. Format: biochemical, mouse.
In the case of FPSLPYSPVSS [CAMKK2_Y128_C123Y_YF], the Screen is listed as -0.5143.

FTFNSYFMHWV [IGHV1-46_Y51_T49N_YF] displayed a Screen of 1.775.

For IDPFTYTPFGS [CYP3A4_Y432_I431T_YF], the Screen was -1.49.

As for LTERSYSFVTT [ACTA1_Y200_G199S], the Screen was 1.792.

NTGVFYDLFGG [PTPN11_Y63_D61V_YF]: the Screen was found to be 0.6171.

The sequence PLGPLYASSNT [INSR_Y992_P997T] returned a Screen of -0.7776.

Take QPEDIYHQTWA [GBA_Y244_G241E]: the Screen is listed as 1.354.

As for QRCFVYFFSFL [PTEN_Y176_R173C_YF], the Screen worked out at 0.1249.

QRHFVYFFSFL [PTEN_Y176_R173H_YF]: the Screen amounted to 0.1451.

Turning to SDPIVYTLENI [EMR1_Y534_I533V], the Screen was -1.778.

The same assay, now with this note: sheet "Fer"; variant peptide relative to its reference peptide, pTyr-Var library screen enrichment.
On to AGDGRYEVLFL [SEMA3F_Y478_A474G], for which the Screen was 0.6103.

Turning to ESAAIYNPVIF [RHO_Y301_K296E_YF], the Screen turned out to be 0.08101.

Take FDSPFYQDSLP [TSC1_Y508_R509Q]: the Screen was 2.568.

Take FVTSMYNEILI [TRPV1_Y310_M315I]: the Screen amounted to 0.9219.

Regarding NQELIYEGQRL [TBK1_Y354_R357Q], the Screen was 0.5191.

The test system of a further assay is EPHB1 kinase domain. The description is as above. The assay is classed as biochemical, human. To be noted: sheet "EPHB1"; variant seq vs reference seq; bacterial peptide display enrichment.
For HSREDYFECFQ [ZIM2_Y411_Q408R], the “Screen (variant relative to reference peptide, measured in the pTyr-Var library screen)” value is listed as -0.06401.

Turning to MGSFNYLGFAW [SPTLC2_Y178_R183W_YF], the “Screen (variant relative to reference peptide, measured in the pTyr-Var library screen)” value is 1.333.

For the sequence PEVSGYCHFAD [TG_Y234_C237Y_YF], the “Screen (variant relative to reference peptide, measured in the pTyr-Var library screen)” value was -1.855.

As for RRIHSYRGHLC [VHL_Y112_W117C], the “Screen (variant relative to reference peptide, measured in the pTyr-Var library screen)” value was -1.181.

With RRIHSYRGQLW [VHL_Y112_H115Q], the “Screen (variant relative to reference peptide, measured in the pTyr-Var library screen)” value is reported as -1.797.

Regarding TGFRPYVCPFD [YY1_Y383_D380Y_YF], the “Screen (variant relative to reference peptide, measured in the pTyr-Var library screen)” value is given as 1.233.

The same assay, now with this note: sheet EPHB1; effect of the variant peptide relative to its reference peptide in the pTyr-Var library screen (enrichment scores).
The sequence CPFNLYAAQLS [HGD_Y40_E42A_YF] gave a Screen of 0.6281.

FGSGNYNVFGN [HNRNPA2B1_Y300_D302V_YF] returned a Screen of -1.963.

As to FVPSFYHAFSG [ACTN4_Y265_S262P_YF], the Screen is on record as -0.2788.

KFLENYFDLEK [MMP3_Y41_K45E_YF]: the Screen was determined as 0.3113.

Regarding LFSNAYLSDLA [ALDH1A1_Y119_N121S_YF], the Screen turned out to be 1.358.

LKMLVYMDMSK [LRRC7_Y234_L235M] displayed a Screen of 1.011.

In turn, LPKDLYLISQM [LARP4_Y141_S137P] showed a Screen of -0.9052.

For the sequence RPAFTYATLIR [FOXP3_Y342_P339A], the Screen is listed as -0.4742.

Take RPPFTYATLIH [FOXP3_Y342_R347H]: the Screen is on record as 0.127.

RVLHNYLVWCV [ECEL1_Y400_R404C] yielded a Screen of -0.3702.

SSSPTYLDLPF [GLI3_Y168_P169L] gave a Screen of 3.84.

As to VWALTYCDLHK [KCNH2_Y827_R823W], the Screen came to 1.577.
